Molecules are shown by their SMILES.

Our source for the Emax and EC50 values is patent publication US20260097037A1, “FUSED RING COMPOUND HAVING GLP-1 RECEPTOR AGONIST EFFECT” (Shionogi & Co., Ltd., priority 2022, published 2026).

The target in this test is T1, Human GLP-1 receptor stably expressing cells (hGLP-1R/CHO-K1 cells) (Homo sapiens, UniProt P43220).
T1 construct: expressed in transfected cells
Nature of the test: Measurement of GLP-1 receptor agonist activity (cAMP assay). The following applies: for Emax: CHO-K1, maximum effect, cAMP with 2 nM human GLP-1 (7-36) = 100%, DMSO only = 0%, read-out: Emax; for EC50: increase in cAMP concentration in hGLP-1R/CHO-K1 cells, 37° C. 1 hour. It counts as cell-based. Here is the method: Test Example 1: Measurement of GLP-1 Receptor Agonist Activity
Human GLP-1 receptor stably expressing cells (hGLP-1R/CHO-K1 cells) are cultured in an a-MEM medium (Sigma) containing 10% FBS (Hyclone), 2% GlutaMAX (Gibco), 1% G418 (Nacalai Tesque), and 1% Penicillin-Streptomycin Mixed Solution (Sigma) at 37° C. under 5% CO2 conditions, and recovered by treating a 10 fold diluted 5.0 g/1-trypsin/5.3 mmol/1-EDTA solution (Nacalai Tesque) and cryopreserved.
A DMSO solution containing the compound of the present invention or human GLP-1 (7-36) (Phoenix Pharmaceuticals) is dispensed into a 384-well microplate (Greiner) at 62.5 nL/well, and in addition, 400 μM Forskolin (Nacalai Tesque) is dispensed therein at 7.5 nL/well. Subsequently, the frozen GLP-1 R/CHO-K1 cells are thawed in a thermostatic bath at 37° C., suspended in HBSS buffer (GIBCO) containing 0.1% BSA (Sigma), 20 mM HEPES, 0.1 mM IBMX (Sigma), and 0.2 mM RO20-1724 (Calbiochem) at 2×10^4 cells/mL, and the cell suspension is added at 6 μL/well. The solution was incubated at 37° C. for 1 hour and intracellular cAMP concentration is measured using cAMP Gs dynamic kit (Cisbio) according to the protocol attached to the product. Specifically, a cAMP-d2/Anti-cAMP-Cryptate (1/1) mixture solution is added in a total amount of 6 μL/well, and is incubated at room temperature for 1 hour, and then, time-resolved fluorescence is measured using PHERAstar (BMG Labtech).
Assuming that the cAMP concentration when human GLP-1 (7-36) is dispensed to a final concentration of 2 nM is 100% and the cAMP concentration when only DMSO is dispensed is 0%, the 50% effective concentration (EC50) and the maximum effect (Emax) of the compound of the present invention are calculated using an increase in the cAMP concentration as an index, using TIBCO Spotfire (TIBCO Software). The dilution concentration or the dilution solvent are changed as necessary.
The compounds of the present invention were tested essentially as described above.

T1 sequence (P43220 24-463): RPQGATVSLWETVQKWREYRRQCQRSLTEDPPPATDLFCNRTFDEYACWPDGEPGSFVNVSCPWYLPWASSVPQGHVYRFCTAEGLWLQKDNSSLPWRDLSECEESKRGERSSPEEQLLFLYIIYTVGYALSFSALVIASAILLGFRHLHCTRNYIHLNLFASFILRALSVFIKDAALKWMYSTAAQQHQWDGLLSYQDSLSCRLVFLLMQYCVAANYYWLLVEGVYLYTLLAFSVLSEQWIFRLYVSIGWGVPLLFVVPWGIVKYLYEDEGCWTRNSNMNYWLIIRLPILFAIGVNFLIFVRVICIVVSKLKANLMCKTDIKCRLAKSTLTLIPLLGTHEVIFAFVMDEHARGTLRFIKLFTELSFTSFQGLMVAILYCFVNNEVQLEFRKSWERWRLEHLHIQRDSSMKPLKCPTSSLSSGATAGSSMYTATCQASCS

With `C[C@H]1c2nc(OCc3ccc(F)cc3)c(Cl)cc2CCN1Cc1nc2ccc(C(=O)O)c(F)c2n1C[C@@H]1CCO1` [Compound I-042], the Emax came to 127% and the EC50 worked out at 208 pM.
The matching figures for `C[C@H]1c2cc(OCc3c(F)cc(Cl)cc3F)c(Cl)cc2CCN1Cc1nc2ccc(C(=O)O)c(F)c2n1C[C@@H]1CCO1` [Compound I-043]: 118% and 64.7 pM.
The matching figures for `C[C@H]1c2cc(OCc3c(F)cc(F)cc3F)c(Cl)cc2CCN1Cc1nc2ccc(C(=O)O)c(F)c2n1C[C@@H]1CCO1` [Compound I-044]: 126% and 109 pM.
The corresponding values for `C[C@H]1c2nc(OCc3ccc(Cl)cc3F)c(Cl)cc2CCN1Cc1nc2ccc(C(=O)O)c(F)c2n1C[C@@H]1CCO1` [Compound I-045] are 131% and 34.5 pM.
For `C[C@H]1c2c(cc(C(F)(F)F)c3c2O[C@](C)(c2ccc(Cl)cc2F)O3)CCN1Cc1nc2ccc(C(=O)O)cc2n1C[C@@H]1CCO1` [Compound I-046], the maximum response (Emax) was 112% and the concentration giving a half-maximal response (EC50) worked out at 669000 pM.
The corresponding values for `C[C@H]1c2c(cc(C(F)(F)F)c3c2O[C@@](C)(c2ccc(Cl)cc2F)O3)CCN1Cc1nc2ccc(C(=O)O)cc2n1C[C@@H]1CCO1` [Compound I-047] are 146% and 903 pM.
The matching figures for `C[C@H]1c2nc(OCc3ncc(Cl)s3)c(C(F)(F)F)cc2CCN1Cc1nc2ccc(C(=O)O)cc2n1C[C@@H]1CCO1` [Compound I-048]: 93.7% and 3310 pM.
In the case of `C[C@H]1c2nc(OCc3ccc(Cl)cc3F)c(C(F)(F)F)cc2CCN1Cc1nc2sc(C(=O)O)cc2n1C[C@@H]1CCO1` [Compound I-049], the Emax came out at 112% and the EC50 was determined as 307 pM.
`C[C@H]1c2nc(OCc3nc4ccccc4s3)c(C(F)(F)F)cc2CCN1Cc1nc2ccc(C(=O)O)cc2n1C[C@@H]1CCO1` [Compound I-050]: the Emax amounted to 97% and the EC50 was determined as 638 pM.
Consider `C[C@H]1c2nc(OCc3ccc(F)cc3)c(C(F)F)cc2CCN1Cc1nc2ccc(C(=O)O)cc2n1C[C@@H]1CCO1` [Compound I-051], for which the Emax was determined as 118% and a half-maximal response (EC50) required 1020 pM.
On to `C[C@H]1c2nc(OCc3ccc(Cl)cc3)c(C(F)F)cc2CCN1Cc1nc2ccc(C(=O)O)cc2n1C[C@@H]1CCO1` [Compound I-052], for which the Emax was found to be 115% and the EC50 came to 252 pM.
For `Cc1ccc(COc2nc3c(cc2C(F)F)CCN(Cc2nc4ccc(C(=O)O)cc4n2C[C@@H]2CCO2)[C@H]3C)cc1` [Compound I-053], the Emax was 123% and the EC50 amounted to 417 pM.
As to `COc1cc(Cl)ccc1COc1nc2c(cc1C(F)F)CCN(Cc1nc3ccc(C(=O)O)cc3n1C[C@@H]1CCO1)[C@H]2C` [Compound I-054], the Emax was 121% and the EC50 came to 96.3 pM.
With `C[C@H]1c2nc(OCc3ccccc3Cl)c(C(F)F)cc2CCN1Cc1nc2ccc(C(=O)O)cc2n1C[C@@H]1CCO1` [Compound I-055], the Emax amounted to 97% and the EC50 was 902 pM.
The corresponding values for `C[C@H]1c2nc(OCc3ccc(F)cc3F)c(C(F)F)cc2CCN1Cc1nc2ccc(C(=O)O)cc2n1C[C@@H]1CCO1` [Compound I-056] are 108% and 354 pM.
The corresponding values for `C[C@H]1c2nc(OCc3ccc(Cl)cc3Cl)c(C(F)F)cc2CCN1Cc1nc2ccc(C(=O)O)cc2n1C[C@@H]1CCO1` [Compound I-057] are 86.7% and 315 pM.
The corresponding values for `C[C@H]1c2nc(OCc3ccc(Cl)cn3)c(C(F)F)cc2CCN1Cc1nc2ccc(C(=O)O)cc2n1C[C@@H]1CCO1` [Compound I-058] are 92.7% and 924 pM.
For `C[C@H]1c2nc(OCc3ccc(OC(F)F)cc3F)c(C(F)F)cc2CCN1Cc1nc2ccc(C(=O)O)cc2n1C[C@@H]1CCO1` [Compound I-059], the Emax is 104% and the EC50 came out at 1280 pM.
As for `C[C@H]1c2nc(OCc3c(F)cc(Cl)cc3F)c(C(F)F)cc2CCN1Cc1nc2ccc(C(=O)O)cc2n1C[C@@H]1CCO1` [Compound I-060], the maximal effect (Emax) worked out at 105% and the concentration for a half-maximal effect (EC50) is 147 pM.
With `C[C@H]1c2nc(OCc3c(F)cc(F)cc3F)c(C(F)F)cc2CCN1Cc1nc2ccc(C(=O)O)cc2n1C[C@@H]1CCO1` [Compound I-061], the Emax amounted to 101% and the EC50 is 295 pM.
As for `C[C@H]1c2nc(OCc3cc(F)c(Cl)cc3F)c(C(F)F)cc2CCN1Cc1nc2ccc(C(=O)O)cc2n1C[C@@H]1CCO1` [Compound I-062], the Emax is 99.3% and the EC50 was determined as 215 pM.
The corresponding values for `C[C@H]1c2nc(OCc3ccc(C#N)cc3F)c(C(F)F)cc2CCN1Cc1nc2ccc(C(=O)O)cc2n1C[C@@H]1CCO1` [Compound I-063] are 92.3% and 195 pM.
The corresponding values for `C[C@H]1c2nc(OCc3ccc(Cl)cc3F)c(C(F)(F)F)cc2CCN1Cc1nc2c(-c3ccn(C)n3)cc(C(=O)O)cc2n1C[C@@H]1CCO1` [Compound I-064] are 102% and 345 pM.
For `COc1cc(C(=O)O)cc2c1nc(CN1CCc3cc(Cl)c(OCc4ccc(Cl)cn4)nc3[C@@H]1C)n2C[C@@H]1CCO1` [Compound I-065], the Emax worked out at 104% and a half-maximal response (EC50) required 80.9 pM.
The corresponding values for `COc1cc(C(=O)O)cc2c1nc(CN1CCc3cc(Cl)c(OCc4ccc(Cl)cc4)nc3[C@@H]1C)n2C[C@@H]1CCO1` [Compound I-066] are 106% and 37.5 pM.
In the case of `COc1cc(C(=O)O)cc2c1nc(CN1CCc3cc(Cl)c(OCc4ccc(C)cc4)nc3[C@@H]1C)n2C[C@@H]1CCO1` [Compound I-067], the Emax stood at 98.3% and a half-maximal response (EC50) required 60.5 pM.
With `COc1cc(C(=O)O)cc2c1nc(CN1CCc3cc(Cl)c(OCc4ccccc4Cl)nc3[C@@H]1C)n2C[C@@H]1CCO1` [Compound I-068], the Emax is 112% and the EC50 stood at 194 pM.
In the case of `COc1cc(C(=O)O)cc2c1nc(CN1CCc3cc(Cl)c(OCc4ccc(F)cc4F)nc3[C@@H]1C)n2C[C@@H]1CCO1` [Compound I-069], the Emax is 109% and the EC50 came out at 42.2 pM.
The corresponding values for `COc1cc(C(=O)O)cc2c1nc(CN1CCc3cc(Cl)c(OCc4ccc(Cl)cc4Cl)nc3[C@@H]1C)n2C[C@@H]1CCO1` [Compound I-070] are 105% and 18.7 pM.
Consider `COc1cc(C(=O)O)cc2c1nc(CN1CCc3cc(Cl)c(OCc4ccc(OC(F)F)cc4F)nc3[C@@H]1C)n2C[C@@H]1CCO1` [Compound I-071], for which the maximal response (Emax) was 110% and the concentration for a half-maximal effect (EC50) came out at 68.3 pM.
With `COc1cc(C(=O)O)cc2c1nc(CN1CCc3cc(Cl)c(OCc4cc(F)c(Cl)cc4F)nc3[C@@H]1C)n2C[C@@H]1CCO1` [Compound I-072], the Emax is 106% and the EC50 is 27.4 pM.
Consider `COc1cc(C(=O)O)cc2c1nc(CN1CCc3cc(Cl)c(OCc4ccc(F)cc4)nc3[C@@H]1C)n2C[C@@H]1CCO1` [Compound I-073], for which the Emax worked out at 101% and it took 65.8 pM to reach a half-maximal effect (EC50).
Take `COc1cc(C(=O)O)cc2c1nc(CN1CCc3cc(Cl)c(OCc4c(F)cc(Cl)cc4F)cc3[C@@H]1C)n2C[C@@H]1CCO1` [Compound I-074]: the maximal response (Emax) was found to be 104% and the concentration for a half-maximal effect (EC50) is 23.2 pM.
The corresponding values for `COc1cc(C(=O)O)cc2c1nc(CN1CCc3cc(Cl)c(OCc4c(F)cc(F)cc4F)nc3[C@@H]1C)n2C[C@@H]1CCO1` [Compound I-075] are 118% and 49.3 pM.
Consider `COc1cc(C(=O)O)cc2c1nc(CN1CCc3cc(Cl)c(OCc4ccc(Cl)cc4F)nc3[C@@H]1C)n2C[C@@H]1CCO1` [Compound I-076], for which the Emax amounted to 122% and the response was half-maximal at 20.8 pM (EC50).
The matching figures for `O=C(O)c1ccc2nc(CC3CCc4cc(C(F)(F)F)c(OCc5ccc(Cl)cc5F)cc4C3)n(C[C@@H]3CCO3)c2c1` (stereo partly drawn) [Compound I-077]: 92.3% and 7350 pM.
The matching figures for `CC1c2nc(OCc3ccc(Cl)cc3F)ncc2CCN1Cc1nc2ccc(C(=O)O)cc2n1C[C@@H]1CCO1` (stereo partly drawn) [Compound I-078]: 96% and 14800 pM.
The corresponding values for `C[C@@H]1c2nc(OCc3ccc(Cl)cc3F)ncc2CCN1Cc1nc2ccc(C(=O)O)cc2n1C[C@@H]1CCO1` [Compound I-079] are 75.7% and 886000 pM.
With `C[C@H]1c2nc(OCc3ccc(Cl)cc3F)ncc2CCN1Cc1nc2ccc(C(=O)O)cc2n1C[C@@H]1CCO1` [Compound I-080], the Emax stood at 88.3% and the EC50 stood at 9310 pM.
